Data: patent US9637473B2, “Acrylamide derivatives as antimalarial agents” (priority 2013, dated 2017)
Counter-ions that a name gives are not always drawn.

test system: P. Falciparum NF54; assay: Plasmodium falciparum in vitro assay ([3H]-hypoxanthine incorporation); format: cell-based; conditions: Plasmodium falciparum, Erythrocyte, P. Falciparum NF54, erythrocytic stages in human red blood cells, 50% human serum
How it was run: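 This in vitro antimalarial assay used P. falciparum erythrocytic stages cultured in human erythrocytes and measured [3H]-hypoxanthine incorporation. Radioactivity on the dried filters, placed in plastic foil with 10 mL scintillation fluid, was counted in a Betaplate liquid scintillation counter. Sigmoidal inhibition curves built in Microsoft Excel gave the IC50.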

Going from `CN1CCC(N2CCC(N(Cc3ccc(N(C)c4ccncc4)cc3)C(=O)/C=C/c3ccc(C#N)cc3)CC2)CC1` [Example 179, (E)-3-(4-Cyano-phenyl)-N-(1′-methyl-[1,4′]bipiperidinyl-4-yl)-N-[4-(methyl-pyridin-4-yl-amino)-benzyl]-acrylamide] to `CN1CCC(N2CCC(N(Cc3ccc(N(C)c4ccncc4)cc3)C(=O)/C=C/c3ccc(Cl)cc3)CC2)CC1` [Example 180, (E)-3-(4-Chloro-phenyl)-N-(1′-methyl-[1,4′]bipiperidinyl-4-yl)-N-[4-(methyl-pyridin-4-yl-amino)-benzyl]-acrylamide], the IC50 falls from 54 nM to 21 nM (2.6-fold).

Compared with `CN1CCC(N2CCC(N(Cc3ccc(N(C)c4ccncc4)cc3)C(=O)/C=C/c3ccc(OC(F)F)cc3)CC2)CC1` [Example 181, (E)-3-(4-Difluoromethoxy-phenyl)-N-(1′-methyl-[1,4′]bipiperidinyl-4-yl)-N-[4-(methyl-pyridin-4-yl-amino)-benzyl]-acrylamide], `CN1CCC(N2CCC(N(Cc3ccc(N(C)c4ccncc4)cc3)C(=O)/C=C/c3ccccc3)CC2)CC1` [Example 182, (E)-N-(1′-Methyl-[1,4′]bipiperidinyl-4-yl)-N-[4-(methyl-pyridin-4-yl-amino)-benzyl]-3-phenyl-acrylamide] is 1.9-fold higher in IC50: 36 nM for the first, 69 nM for the second. The first is the more potent here.

Going from `CN1CCC(N2CCC(N(Cc3ccc(N(C)c4ccncc4)cc3)C(=O)/C=C/c3ccc(C(F)(F)F)nc3)CC2)CC1` [Example 183, (E)-N-(1′-Methyl-[1,4′]bipiperidinyl-4-yl)-N-[4-(methyl-pyridin-4-yl-amino)-benzyl]-3-(6-trifluoromethyl-pyridin-3-yl)-acrylamide] to `CN1CCC(N2CCC(CN(Cc3ccc(N(C)c4ccncc4)cc3)C(=O)/C=C/c3ccc(C(F)(F)F)cc3)CC2)CC1` [Example 187, (E)-N-(1′-Methyl-[1,4′]bipiperidinyl-4-ylmethyl)-N-[4-(methyl-pyridin-4-yl-amino)-benzyl]-3-(4-trifluoromethyl-phenyl)-acrylamide], the IC50 falls from 49 nM to 16 nM (3.1-fold).

Compared with `Cc1cc(N(C)c2ccc(CN(C(=O)/C=C/c3ccc(C(F)(F)F)cc3)C3CCN(C4CCCC4)CC3)cc2)ccn1` [Example 184, (E)-N-(1-Cyclopentyl-piperidin-4-yl)-N-{4-[methyl-(2-methyl-pyridin-4-yl)-amino]-benzyl}-3-(4-trifluoromethyl-phenyl)-acrylamide], `Cc1cc(-c2ccc(CN(C(=O)/C=C/c3ccc(C(F)(F)F)cc3)C3CCN(C4CCCC4)CC3)cc2)ccn1` [Example 196, (E)-N-(1-Cyclopentyl-piperidin-4-yl)-N-[4-(2-methyl-pyridin-4-yl)-benzyl]-3-(4-trifluoromethyl-phenyl)-acrylamide] is 5.6-fold higher in IC50: 44 nM for the first, 248 nM for the second. The first is the more potent here.

`CCN(CC)Cc1cc(Nc2ccc(CN(C(=O)/C=C/c3ccc(C(F)(F)F)cc3)C3CCN(C)CC3)cc2)ccc1O` [Example 185, (E)-N-[4-(3-Diethylaminomethyl-4-hydroxy-phenylamino)-benzyl]-N-(1-methyl-piperidin-4-yl)-3-(4-trifluoromethyl-phenyl)-acrylamide] and `Cc1cc(Nc2ccc(CN(C(=O)/C=C/c3ccc(C(F)(F)F)cc3)C3CCN(C(C)C)CC3)cc2)ccn1` [Example 186, (E)-N-(1-Isopropyl-piperidin-4-yl)-N-[4-(2-methyl-pyridin-4-ylamino)-benzyl]-3-(4-trifluoromethyl-phenyl)-acrylamide] are within 1.5-fold of each other in IC50: 39 nM for the first, 43 nM for the second.

Going from `CN(c1ccncc1)c1ccc(CN(CC2CCN(C3CCCC3)CC2)C(=O)/C=C/c2ccc(C(F)(F)F)cc2)cc1` [Example 188, (E)-N-(1-Cyclopentyl-piperidin-4-ylmethyl)-N-[4-(methyl-pyridin-4-yl-amino)-benzyl]-3-(4-trifluoromethyl-phenyl)-acrylamide] to `CN(c1ccncc1)c1ccc(CN(C(=O)/C=C/c2ccc(C(F)(F)F)cc2)[C@H]2CC[C@@H](N3CCCC3)CC2)cc1` [Example 192, (±)-cis-(E)-N-[4-(Methyl-pyridin-4-yl-amino)-benzyl]-N-(4-pyrrolidin-1-yl-cyclohexyl)-3-(4-trifluoromethyl-phenyl)-acrylamide], the IC50 falls from 40 nM to 25 nM (1.6-fold). The second is the more potent here.

Compared with `CC(C)CCN1CCC(CN(Cc2ccc(N(C)c3ccncc3)cc2)C(=O)/C=C/c2ccc(C(F)(F)F)cc2)CC1` [Example 189, (E)-N-[1-(3-Methyl-butyl)-piperidin-4-ylmethyl]-N-[4-(methyl-pyridin-4-yl-amino)-benzyl]-3-(4-trifluoromethyl-phenyl)-acrylamide], `CN(C)CCN1CCC(N(Cc2ccc(N(C)c3ccncc3)cc2)C(=O)/C=C/c2ccc(C(F)(F)F)cc2)CC1` [Example 195, (E)-N-[1-(2-Dimethylamino-ethyl)-piperidin-4-yl]-N-[4-(methyl-pyridin-4-yl-amino)-benzyl]-3-(4-trifluoromethyl-phenyl)-acrylamide formate] is 1.7-fold higher in IC50: 34 nM for the first, 57 nM for the second.

First: CN(c1ccncc1)c1ccc(CN(C(=O)/C=C/c2ccc(C(F)(F)F)cc2)[C@H]2CC[C@H](N(C)C)CC2)cc1 [Example 190, (±)-trans-(E)-N-(4-Dimethylamino-cyclohexyl)-N-[4-(methyl-pyridin-4-yl-amino)-benzyl]-3-(4-trifluoromethyl-phenyl)-acrylamide]
Second: CN(c1ccncc1)c1ccc(CN(C(=O)/C=C/c2ccc(C(F)(F)F)cc2)[C@H]2CC[C@@H](N(C)C)CC2)cc1 [Example 191, (±)-cis-(E)-N-(4-Dimethylamino-cyclohexyl)-N-[4-(methyl-pyridin-4-yl-amino)-benzyl]-3-(4-trifluoromethyl-phenyl)-acrylamide]
The IC50 of the first is 1.9-fold higher: 63 nM for the first, 34 nM for the second.

First: CN(c1ccncc1)c1ccc(CN(C(=O)/C=C/c2ccc(C(F)(F)F)cc2)[C@H]2CC[C@H](N3CCCC3)CC2)cc1 [Example 193, (±)-trans-(E)-N-[4-(Methyl-pyridin-4-yl-amino)-benzyl]-N-(4-pyrrolidin-1-yl-cyclohexyl)-3-(4-trifluoromethyl-phenyl)-acrylamide]
Second: O=C(/C=C/c1ccc(C(F)(F)F)cc1)N(Cc1ccc(Oc2ccncc2)cc1)C1CCN(C2CCCC2)CC1 [Example 207, (E)-N-(1-Cyclopentyl-piperidin-4-yl)-N-[4-(pyridin-4-yloxy)-benzyl]-3-(4-trifluoromethyl-phenyl)-acrylamide]
The IC50 of the first is 8.4-fold lower: 49 nM for the first, 412 nM for the second. The first is the more potent here.

`CN1CCC(N2CCC(N(Cc3ccc(C(=O)c4ccncc4)cc3)C(=O)/C=C/c3ccc(C(F)(F)F)cc3)CC2)CC1` [Example 194, (E)-N-(1′-Methyl-[1,4′]bipiperidinyl-4-yl)-N-[4-(pyridine-4-carbonyl)-benzyl]-3-(4-trifluoromethyl-phenyl)-acrylamide] and `O=C(/C=C/c1ccc(C(F)(F)F)cc1)N(Cc1ccc(-c2cccnc2)cc1)C1CCN(C2CCCC2)CC1` [Example 197, (E)-N-(1-Cyclopentyl-piperidin-4-yl)-N-(4-pyridin-3-yl-benzyl)-3-(4-trifluoromethyl-phenyl)-acrylamide] are within 1.5-fold of each other in IC50: 127 nM for the first, 184 nM for the second.

`O=C(/C=C/c1ccc(C(F)(F)F)cc1)N(Cc1ccc(-c2ccccn2)cc1)C1CCN(C2CCCC2)CC1` [Example 198, (E)-N-(1-Cyclopentyl-piperidin-4-yl)-N-(4-pyridin-2-yl-benzyl)-3-(4-trifluoromethyl-phenyl)-acrylamide] and `O=C(/C=C/c1ccc(C(F)(F)F)cc1)N(Cc1ccc(-c2ncccn2)cc1)C1CCN(C2CCCC2)CC1` [Example 203, (E)-N-(1-Cyclopentyl-piperidin-4-yl)-N-(4-pyrimidin-2-yl-benzyl)-3-(4-trifluoromethyl-phenyl)-acrylamide] are within 1.5-fold of each other in IC50: 355 nM for the first, 400 nM for the second.

Compared with `CC(C)N1CCN(c2ccc(CN(C(=O)/C=C/c3ccc(C(F)(F)F)cc3)C3CCN(C4CCCC4)CC3)cc2)CC1` [Example 199, (E)-N-(1-Cyclopentyl-piperidin-4-yl)-N-[4-(4-isopropyl-piperazin-1-yl)-benzyl]-3-(4-trifluoromethyl-phenyl)-acrylamide], `CN1CCN(c2ccc(CN(C(=O)/C=C/c3ccc(C(F)(F)F)cc3)C3CCN(C4CCCC4)CC3)cc2)CC1` [Example 200, (E)-N-(1-Cyclopentyl-piperidin-4-yl)-N-[4-(4-methyl-piperazin-1-yl)-benzyl]-3-(4-trifluoromethyl-phenyl)-acrylamide] is 2.4-fold higher in IC50: 96 nM for the first, 232 nM for the second. The first is the more potent here.

`Cc1ncc(-c2ccc(CN(C(=O)/C=C/c3ccc(C(F)(F)F)cc3)C3CCN(C4CCCC4)CC3)cc2)s1` [Example 201, (E)-N-(1-Cyclopentyl-piperidin-4-yl)-N-[4-(2-methyl-thiazol-5-yl)-benzyl]-3-(4-trifluoromethyl-phenyl)-acrylamide] and `Cn1ccc(-c2ccc(CN(C(=O)/C=C/c3ccc(C(F)(F)F)cc3)C3CCN(C4CCCC4)CC3)cc2)n1` [Example 202, (E)-N-(1-Cyclopentyl-piperidin-4-yl)-N-[4-(1-methyl-1H-pyrazol-3-yl)-benzyl]-3-(4-trifluoromethyl-phenyl)-acrylamide] are within 1.5-fold of each other in IC50: 357 nM for the first, 434 nM for the second.

First: O=C(/C=C/c1ccc(C(F)(F)F)cc1)N(Cc1ccc(-c2cncnc2)cc1)C1CCN(C2CCCC2)CC1 [Example 204, (E)-N-(1-Cyclopentyl-piperidin-4-yl)-N-(4-pyrimidin-5-yl-benzyl)-3-(4-trifluoromethyl-phenyl)-acrylamide]
Second: Cc1cc(Oc2ccc(CN(C(=O)/C=C/c3ccc(C(F)(F)F)cc3)C3CCN(C4CCCC4)CC3)cc2)cc(C)n1 [Example 208, (E)-N-(1-Cyclopentyl-piperidin-4-yl)-N-[4-(2,6-dimethyl-pyridin-4-yloxy)-benzyl]-3-(4-trifluoromethyl-phenyl)-acrylamide]
The IC50 of the first is 5.3-fold higher: 431 nM for the first, 82 nM for the second. The second is the more potent here.

Going from `CN(C)CCCOc1ccc(CN(C(=O)/C=C/c2ccc(C(F)(F)F)cc2)C2CCN(C3CCCC3)CC2)cc1` [Example 205, (E)-N-(1-Cyclopentyl-piperidin-4-yl)-N-[4-(3-dimethylamino-propoxy)-benzyl]-3-(4-trifluoromethyl-phenyl)-acrylamide] to `O=C(/C=C/c1ccc(C(F)(F)F)cc1)N(Cc1ccnc(N2CCCC2)c1)C1CCN(C2CCCC2)CC1` [Example 206, (E)-N-(1-Cyclopentyl-piperidin-4-yl)-N-(2-pyrrolidin-1-yl-pyridin-4-ylmethyl)-3-(4-trifluoromethyl-phenyl)-acrylamide], the IC50 rises from 82 nM to 451 nM (5.5-fold). The first is the more potent here.
